# Reference: publication PMC11597387 (Molecules, 2024)
# Where “and” joins values, the source holds several entries; their conditions need not be identical. Equal entries are not always repeated. Where two headings read alike, the source gives them in different places.
# Key:
# [1] = pKa determination by UV/vis spectrometric method; format: physicochemical; details: buffers I = 0.1 M, 1% methanol
# Description: For the successful determination of pKa values using the UV/vis spectrometric method, the UV/vis absorbance of the sample must change as a function of ionization. […] For the other investigated compounds, the spectra and results of data analysis are presented in the Supporting Information (Figures S1–S3). […] At lower pH values, the molecules are neutral with an absorption maximum between 311 nm and 343 nm. At the highest pH value, only deprotonated species are present with two absorption maxima, one at a wavelength around 370 nm and the other around 305 nm. […] Data analysis for the determination of ionization constants by spectral analysis applied in this study is described by Tomsho et al. and Ríos Martínez and Dardonville.
# The results of repeated measurements show satisfactory precision with scatter values less than or equal to 0.06 for all compounds [36].
# Working solutions were prepared by 100-fold dilution of stock solutions with appropriate buffer solutions.
# Chemicals used for preparation of buffers were sodium acetate (Alkaloid, Skopje, Macedonia), potassium dihydrogenphosphate (Lach-ner, Neratovice, Czech Republic), sodium hydrogencarbonate (Kemika, Zagreb, Croatia), and dipotassium hydrogenphosphate (Fisher Chemical, Loughborough, UK). Sodium hydroxide was supplied by Gram-mol (Zagreb, Croatia), and hydrochloric acid was supplied by VWR Chemicals (Leuven, Belgium). All chemicals used were of analytical grade and used as received. For the preparation of buffer solutions for spectrophotometric measurements, stock solutions of 0.1 M sodium acetate, 0.05 M potassium dihydrogen phosphate, 0.05 M sodium hydrogen carbonate, and 0.05 M dipotassium hydrogen phosphate were used. Sodium acetate/acetic acid buffer was used for pH range 3.5−5.0, KH2PO4/K2HPO4 for pH range 5.5–8.5, […] for pH range 9.0−11.0, and K2HPO4/K3PO4 for pH range 11.0−11.5. All buffer solutions were prepared with the same ionic strength (I = 0.1 M) by adding KCl (Lach-ner, Neratovice, Czech Republic).
# The exact pH value of the prepared buffer solutions was measured with an S20 SevenEasy pH-meter (MettlerToledo, Greifenseea, Switzerland).
# The data analysis was carried out in the entire specified range. However, due to high absorbance at short wavelengths and zero absorbance at wavelengths greater than 500 nm, spectra in the range from 250 nm to 500 nm are shown in the figures for a clearer presentation. […] Appropriate buffer solutions were used as a blank.
# Data analysis included correction of the raw spectra (A(500 nm) = 0) and the calculation of the spectral difference, which were performed using Excel program. The spectral difference was determined between the spectra recorded at each pH and at the spectra recorded at the lowest pH. The wavelengths of maximum positive and negative deviations were determined from the spectral difference graph. The absolute values of the absorbance difference at the determined wavelengths were summed to obtain total absorbance difference. The dependence of the total absorbance difference on pH (spectral difference graph) gives a characteristic sigmoidal curve. […] (1) Total absorbace difference = STεHA−εA^−·10^(pH−pKa)/1+10^(pH−pKa) where [ST] is the total substance concentration, and εHA and εA^− represent the extinction coefficients of the acidic and basic form of the compound, respectively.
# Measurements were performed using freshly prepared working solutions. For each resveratrol analogue and each pH, three consecutive measurements were made.
# [2] = literature value, no reference given; cited from earlier work
# [3] = mean of three determinations, read-out: pKa¯ ± Scatter Value
# [4] = single determination (one of three)
# [5] = single determination (one of three), read-out: pKa
smiles,measurement,setting,value
"Oc1ccccc1/C=C/c1cccs1 [Compound 2, (E)-2-(2-(Thiophen-2-yl)vinyl)phenol]",pKa,[1]; [3],9.88 ± 0.04
same,pKa,[1]; [4],9.86 and 9.92
same,pKa,[1]; [5],9.85
"Oc1cccc(/C=C/c2cccs2)c1 [Compound 3, (E)-3-(2-(Thiophen-2-yl)vinyl)phenol]",pKa,[1]; [3],10.1
same,pKa,[1]; [4],10.05
same,pKa,[1]; [5],10.1
"COc1ccc(/C=C/c2cccs2)c(O)c1 [Compound 4, (E)-5-Methoxy-2-(2-(thiophen-2-yl)vinyl)phenol]",pKa,[1]; [3],9.17 ± 0.06
same,pKa,[1]; [4],9.21 and 9.11
same,pKa,[1]; [5],9.19
"Cc1ccc(/C=C/c2ccccc2O)s1 [Compound 5, (E)-2-(2-(5-Methylthiophen-2-yl)vinyl)phenol]",pKa,[1]; [3],9.4
same,pKa,[1]; [4],9.36
same,pKa,[1]; [5],9.45
"COc1ccc(/C=C/c2ccc(C)s2)c(O)c1 [Compound 6, (E)-5-Methoxy-2-(2-(5-methythiophen-2-yl)vinyl)phenol]",pKa,[1]; [3],9.62
same,pKa,[1]; [4],9.59 and 9.66
same,pKa,[1]; [5],9.62
COc1cccc(O)c1 [meta-methoxyphenol],experimental pKa^exp,[2],9.6
